# Experimental data reported in patent US20080188481A1 (priority 2002, published 2008).
# Test system: HIV-1 single-round infectious reporter virus
# Assay: Single-round infectious HIV-1 luciferase reporter virus infection of HeLa CD4 cells (antiviral EC50)
# Assay type: cell-based
# Details: Human immunodeficiency virus 1, HeLa, 72 h, read-out: EC50 Group from Table 1
# Experimental: • Virus production—Human embryonic Kidney cell line, 293T, was propagated in Dulbecco's Modified Eagle Medium (Invitrogen, Carlsbad, Calif.) containing 10% fetal Bovine serum (FBS, Sigma, St. Louis, Mo.). • Virus infection—Human epithelial cell line, HeLa, expressing the HIV-1 receptor CD4 was propagated in Dulbecco's Modified Eagle Medium (Invitrogen, Carlsbad, Calif.) containing 10% fetal Bovine serum (FBS, Sigma, St. Louis, Mo.) and supplemented with 0.2 mg/mL Geneticin (Invitrogen, Carlsbad, Calif.). Virus-Single-round infectious reporter virus was produced by co-transfecting human embryonic Kidney 293 cells with an HIV-1 envelope DNA expression vector and a proviral cDNA containing an envelope deletion mutation and the luciferase reporter gene inserted in place of HIV-1 nef sequences (Chen et al, Ref. 41). Transfections were performed using lipofectAMINE PLUS reagent as described by the manufacturer (Invitrogen, Carlsbad, Calif.).
# • 1. HeLa CD4 cells were plated in 96 well plates at a cell density of 1×10^4 cells per well in 100 μl Dulbecco's Modified Eagle Medium containing 10% fetal Bovine serum and incubated overnight. • 2. Compound was added in a 2 μl dimethylsulfoxide solution, so that the final assay concentration would be ≦10 μM. • 3. 100 μl of single-round infectious reporter virus in Dulbecco's Modified Eagle Medium was then added to the plated cells and compound at an approximate multiplicity of infection (MOI) of 0.01, resulting in a final volume of 200 μl per well. • 4. Virally-infected cells were incubated at 37 degrees Celsius, in a CO2 incubator, and harvested 72 h after infection. • 5. Viral infection was monitored by measuring luciferase expression from viral DNA in the infected cells using a luciferase reporter gene assay kit, as described by the manufacturer (Roche Molecular Biochemicals, Indianapolis, Ind.). Infected cell supernatants were removed and 50 μl of lysis buffer was added per well. After 15 minutes, 50 μl of freshly-reconstituted luciferase assay reagent was added per well. Luciferase activity was then quantified by measuring luminescence using a Wallac microbeta scintillation counter. • 6. The percent inhibition for each compound was calculated by quantifying the level of luciferase expression in cells infected in the presence of each compound as a percentage of that observed for cells infected in the absence of compound and subtracting such a determined value from 100. • 7. An EC50 provides a method for comparing the antiviral potency of the compounds of this invention. The effective concentration for fifty percent inhibition (EC50) was calculated with the Microsoft Excel Xlfit curve fitting software. For each compound, curves were generated from percent inhibition calculated at 10 different concentrations by using a four paramenter logistic model (model 205). Table 1 is the key for the data in Table 2.
row,Structure (SMILES),EC50 [nM]
1,"N#CC(=C1CCN(C(=O)C(=O)c2c[nH]c3c(-c4cncc(N)n4)ccnc23)CC1)c1ccccc1 [Example 106, (1-{2-[7-(6-Amino-pyrazin-2-yl)-1H-pyrrolo[3,2-b]pyridin-3-yl]-2-oxo-acetyl}-piperidin-4-ylidene)-phenyl-acetonitrile]",< 1000
2,"O=C(C(=O)N1CCC(=C(Br)c2ccccc2)CC1)c1c[nH]c2c(Cl)ccnc12 [Example 107, 1-[4-(Bromo-phenyl-methylene)-piperidin-1-yl]-2-(7-chloro-1H-pyrrolo[3,2-b]pyridin-3-yl)-ethane-1,2-dione]",< 1000
3,"Cc1nnc(C(=C2CCN(C(=O)C(=O)c3c[nH]c4c(Cl)ccnc34)CC2)c2ccccc2)o1 [Example 108, 1-(7-Chloro-1H-pyrrolo[3,2-b]pyridin-3-yl)-2-{4-[(5-methyl-[1,3,4]oxadiazol-2-yl)-phenyl-methylene]-piperidin-1-yl}-ethane-1,2-dione]",< 1000
4,"O=C(C(=O)N1CCC(=C(c2ccccc2)c2cc(F)cc(F)c2)CC1)c1c[nH]c2c(Cl)ccnc12 [Example 109, 1-(7-Chloro-1H-pyrrolo[3,2-b]pyridin-3-yl)-2-{4-[(3,5-difluoro-phenyl)-phenyl-methylene]-piperidin-1-yl}-ethane-1,2-dione]",< 1000
5,"N#CC(=C1CCN(C(=O)C(=O)c2c[nH]c3c(-n4cncn4)ncc(F)c23)CC1)c1ccccc1 [Example 110, {1-[2-(4-Fluoro-7-[1,2,4]triazol-1-yl-1H-pyrrolo[2,3-c]pyridin-3-yl)-2-oxo-acetyl]-piperidin-4-ylidene}-phenyl-acetonitrile]",< 1000
6,"N#CC(=C1CCN(C(=O)C(=O)c2c[nH]c3c(-n4ccc(N)n4)ncc(F)c23)CC1)c1ccccc1 [Example 111, (1-{2-[7-(3-Amino-pyrazol-1-yl)-4-fluoro-1H-pyrrolo[2,3-c]pyridin-3-yl]-2-oxo-acetyl}-piperidin-4-ylidene)-phenyl-acetonitrile]",< 1000
7,"COc1ncc(OC)c2c(C(=O)C(=O)N3CCC(=C(C#C[Si](C)(C)C)c4ccccc4)CC3)c[nH]c12 [Example 112, 1-[4-(1-Phenyl-1-(2-trimethylsilylethyn-1-yl)-methylene)-piperidin-1-yl]-2-(4,7-dimethoxy-6-azaindol-3-yl)-ethane-1,2-dione]",< 1000
8,"C#CC(=C1CCN(C(=O)C(=O)c2c[nH]c3c(OC)ncc(OC)c23)CC1)c1ccccc1 [Example 113, 1-[4-(1-Phenyl-1-ethynyl-methylene)-piperidin-1-yl]-2-(4,7-dimethoxy-6-azaindol-3-yl)-ethane-1,2-dione]",< 1000
9,"COc1ncc(OC)c2c(C(=O)C(=O)N3CCC(=C(C#CC(C)C)c4ccccc4)CC3)c[nH]c12 [Example 114, 1-[4-(1-Phenyl-1-(2-isopropylethyn-1-yl)-methylene)-piperidin-1-yl]-2-(4,7-dimethoxy-6-azaindol-3-yl)-ethane-1,2-dione]",< 1000
10,"COc1ncc(OC)c2c(C(=O)C(=O)N3CCC(=C(C#CC4CC4)c4ccccc4)CC3)c[nH]c12 [Example 115, 1-[4-(1-Phenyl-1-(2-cyclopropylethyn-1-yl)-methylene)-piperidin-1-yl]-2-(4,7-dimethoxy-6-azaindol-3-yl)-ethane-1,2-dione]",< 1000
11,"COc1ncc(OC)c2c(C(=O)C(=O)N3CCC(=C(C#CCO)c4ccccc4)CC3)c[nH]c12 [Example 116, 1-[4-(1-Phenyl-1-(2-hydroxymethylethyn-1-yl)-methylene)-piperidin-1-yl]-2-(4,7-dimethoxy-6-azaindol-3-yl)-ethane-1,2-dione]",< 1000
12,"COCC#CC(=C1CCN(C(=O)C(=O)c2c[nH]c3c(OC)ncc(OC)c23)CC1)c1ccccc1 [Example 117, 1-[4-(1-Phenyl-1-(2-methoxymethylethyn-1-yl)-methylene)-piperidin-1-yl]-2-(4,7-dimethoxy-6-azaindol-3-yl)-ethane-1,2-dione]",< 1000
13,"COc1ncc(OC)c2c(C(=O)C(=O)N3CCC(=C(C#Cc4ccccc4)c4ccccc4)CC3)c[nH]c12 [Example 118, 1-[4-(1-Phenyl-1-(2-phenylethyn-1-yl)-methylene)-piperidin-1-yl]-2-(4,7-dimethoxy-6-azaindol-3-yl)-ethane-1,2-dione]",< 1000
14,"COc1ncc(OC)c2c(C(=O)C(=O)N3CCC(=C(C#CC(=O)O)c4ccccc4)CC3)c[nH]c12 [Example 119, 1-[4-(1-Phenyl-1-(2-carboxyethyn-1-yl)-methylene)-piperidin-1-yl]-2-(4,7-dimethoxy-6-azaindol-3-yl)-ethane-1,2-dione]",< 1000
15,"COc1cnc(-n2cnc(C)n2)c2[nH]cc(C(=O)C(=O)N3CCC(=C(c4ccccc4)c4cncc(CO)c4)CC3)c12 [Example 120, 1-[4-(1-Phenyl-1-(5-hydroxymethylpyridin-3-yl)-methylene)-piperidin-1-yl]-2-[4-methoxy-7-(3-methyl-1,2,4-triazol-1-yl)-6-azaindol-3-yl]-ethane-1,2-dione]",< 1000
16,CCOC(=O)c1cncc(C(=C2CCN(C(=O)C(=O)c3c[nH]c4c(-n5cnc(C)n5)ncc(OC)c34)CC2)c2ccccc2)c1 [Example 121],< 1000
17,"COc1ncc(OC)c2c(C(=O)C(=O)N3CCC(=C(C#N)c4nnc(-c5ccccc5)o4)CC3)c[nH]c12 [Example 122, 1-[4-(1-Cyano-1-(5-phenyl-1,3,4-oxadiazol-2-yl)-methylene)-piperidin-1-yl]-2-(4,7-dimethoxy-6-azaindol-3-yl)-ethane-1,2-dione]",> 5000
18,"COc1ncc(OC)c2c(C(=O)C(=O)N3CCC(=C(C#N)c4nc5ccccc5s4)CC3)c[nH]c12 [Example 123, 1-[4-(1-Cyano-1-benzothiazol-2-yl-methylene)-piperidin-1-yl]-2-(4,7-dimethoxy-6-azaindol-3-yl)-ethane-1,2-dione]",> 5000
19,"COc1ncc(OC)c2c(C(=O)C(=O)N3CCC(=C(C#N)c4cncs4)CC3)c[nH]c12 [Example 124, 1-[4-(1-Cyano-1-thiazol-5-yl-methylene)-piperidin-1-yl]-2-(4,7-dimethoxy-6-azaindol-3-yl)-ethane-1,2-dione]",< 1000
20,"COc1ncc(OC)c2c(C(=O)C(=O)N3CCC(=C(C#N)c4c(C)sc(C)c4C)CC3)c[nH]c12 [Example 125, 1-[4-(1-Cyano-1-(2,3,5-trimethylthien-4-yl)-methylene)-piperidin-1-yl]-2-(4,7-dimethoxy-6-azaindol-3-yl)-ethane-1,2-dione]",> 5000
21,"COc1ncc(OC)c2c(C(=O)C(=O)N3CCC(=C(C#N)c4ccsc4)CC3)c[nH]c12 [Example 126, 1-[4-(1-Cyano-1-thien-3-yl-methylene)-piperidin-1-yl]-2-(4,7-dimethoxy-6-azaindol-3-yl)-ethane-1,2-dione]",< 1000
22,"COc1ncc(OC)c2c(C(=O)C(=O)N3CCC(=C(C#N)c4coc5ccccc45)CC3)c[nH]c12 [Example 127, 1-[4-(1-Cyano-1-benzofuran-3-yl-methylene)-piperidin-1-yl]-2-(4,7-dimethoxy-6-azaindol-3-yl)-ethane-1,2-dione]",< 1000
23,"COc1ncc(OC)c2c(C(=O)C(=O)N3CCC(=C(C#N)c4csc5ccccc45)CC3)c[nH]c12 [Example 128, 1-[4-(1-Cyano-1-benzothien-3-yl-methylene)-piperidin-1-yl]-2-(4,7-dimethoxy-6-azaindol-3-yl)-ethane-1,2-dione]",< 1000
24,"N#CC(=C1CCN(C(=O)C(=O)c2c[nH]c3c(-n4ccnn4)ncc(F)c23)CC1)c1ccccc1 [Example 129a, {1-[2-(4-Fluoro-7-[1,2,3]triazol-1-yl-1H-pyrrolo[2,3-c]pyridin-3-yl)-2-oxo-acetyl]-piperidin-4-ylidene}-phenyl-acetonitrile]",< 1000
25,"C=C(C)c1nnc(C(=C2CCN(C(=O)C(=O)c3c[nH]c4c(-n5cnc(C)n5)ncc(OC)c34)CC2)c2ccccc2)o1 [Example 130, 1-[4-(1-Phenyl-1-(5-isopropenyl-1,3,4-oxadiazol-2-yl)-methylene)-piperidin-1-yl]-2-[4-methoxy-7-(3-methyl-1,2,4-triazol-1-yl)-6-azaindol-3-yl]-ethane-1,2-dione]",< 1000
26,"COc1cnc(-n2cnc(C)n2)c2[nH]cc(C(=O)C(=O)N3CCC(=C(c4ccccc4)c4nnco4)CC3)c12 [Example 131, 1-[4-(1-Phenyl-1-(1,3,4-oxadiazol-2-yl)-methylene)-piperidin-1-yl]-2-[4-methoxy-7-(3-methyl-1,2,4-triazol-1-yl)-6-azaindol-3-y]-ethane-1,2-dione]",< 1000
